Laboratory results reported in publication PMC5804415, “Comparison of ^68Ga-DOTA-Siglec-9 and ^18F-Fluorodeoxyribose-Siglec-9: Inflammation Imaging and Radiation Dosimetry” (Contrast Media & Molecular Imaging, 2017).
Positions of bridges follow the written chain, without caps; N, C: chain ends. Residues, ends and D or L forms follow the SMILES beside them. *: point of attachment. X1 = O=C(CON=C[C@H](O)[C@H](O)[C@H](O)CF)*; AEEA = NCCOCCOCC(=O)O

Assays:
[1] = tested on: atherosclerotic plaques in LDLR^−/−ApoB^100/100 mouse aorta; assay: Autoradiography of aortic cryosections of atherosclerotic mice; assay type: in vivo; settings: LDLR^−/−ApoB^100/100 mice, n = 12, mean ± SD
Protocol: Autoradiography was used to study the distribution of radioactivity in the aorta in more detail, as described previously. After careful superimposition of the autoradiographs and H&E stained images, the count densities of 540 ROIs (185: plaques, 241: normal vessel walls, and 114: adventitia) were analyzed using Tina 2.1 software. The autoradiography results were calculated as the photostimulated luminescence per unit area (PSL/mm^2) normalized for injected radioactivity dose, and as ratios between the atherosclerotic plaque, normal vessel wall, and adventitia.

[2] = tested on: LDLR^−/−ApoB^100/100 atherosclerotic mice; assay: PET/CT imaging of atherosclerotic mice; assay type: in vivo, mouse; settings: atherosclerotic LDLR^−/−ApoB^100/100 mice, 10–20 min after injection, mean ± SD, n = 2
Protocol: Six-month-old atherosclerotic low-density lipoprotein receptor-deficient mice (weight, 27 ± 4.1 g; n = 19) expressing only apolipoprotein B100 (LDLR^−/−ApoB^100/100, strain #003000; Jackson Laboratory, Bar Harbor, ME, USA) were fed for 4 months with a Western-type diet. Two-month-old C57BL/6N mice (weight, 24 ± 2.2 g; n = 13) fed with a regular chow served as controls.
A subset of mice (two atherosclerotic, two controls) were injected with 4.7 ± 1.1 MBq of ^18F-FDR-Siglec-9 and imaged with an Inveon Multimodality PET/CT (Siemens, Medical Solutions, Knoxville, TN, USA). Dynamic PET images were acquired for 60 min, followed by CT with a contrast agent (eXIATM160XL, Binitio Biomedical Inc., Ottawa, ON, Canada). The PET images were reconstructed with OSEM3D (frames 5 × 60 s, 3 × 300 s, 1 × 600 s, […]).
Quantitative PET image analysis was performed by defining ROIs in the heart left ventricle (blood pool) and aortic arch as identified on the basis of the CT angiography by using the Inveon Research Workplace software (Siemens Medical Solutions, Knoxville, TN, USA). Time frames 10–20 min after injection were used for PET quantification, as previously reported in the same mouse model using ^68Ga-DOTA-Siglec-9 [4]. The results within ROIs were expressed as SUV and target-to-background ratio (SUVmax,aortic arch/SUVmean,blood).

With `CC(C)C[C@@H]1NC(=O)CNC(=O)[C@H](CCCNC(=N)N)NC(=O)[C@H](Cc2c[nH]c3ccccc23)NC(=O)[C@H](CO)NC(=O)[C@H](CC(C)C)NC(=O)[C@H](CO)NC(=O)[C@H](CC(C)C)NC(=O)[C@H](CCCNC(=N)N)NC(=O)[C@H](C)NC(=O)[C@@H](NC(=O)COCCOCCNC(=O)CON=C[C@H](O)[C@H](O)[C@H](O)CF)CSSC[C@@H](C(=O)N2CCC[C@H]2C(=O)N[C@@H](CO)C(=O)N[C@@H](CCCCN)C(=O)O)NC(=O)[C@H](CC(C)C)NC(=O)[C@H]([C@@H](C)O)NC1=O` [^18F-FDR-Siglec-9] ({X1-AEEA}-CARLSLSWRGLTLCPSK-OH; disulfide 1-14; N-terminus and C-terminus assumed) the plaque-to-adventitia ratio [1] was 2.2 ± 0.53, the “plaque-to-healthy vessel wall ratio” value [1] was 1.9 ± 0.23 and the “target-to-background ratio (SUVmax,aortic arch/SUVmean,blood)” value [2] was 1.6 ± 0.078.
